Data reported in patent US20210395313A1, “PEPTIDE PAC1 ANTAGONISTS” (AMGEN INC., priority 2017, published 2021).
Where a SMILES comes first, the peptide text is derived from it. Bridges are numbered along the chain shown (N, C = ends). Where no end group is shown, it is not given here.

Each compound was assayed against T1, rat PAC1 receptor (Rattus norvegicus, UniProt P32215) (assay: LANCE Ultra cAMP accumulation antagonist assay in RG-2 cells;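 further: RG-2 rat glioma cells endogenously expressing PAC1, test peptide preincubated 30 min, then PAC1 agonist added at its EC80 for 15 min, cAMP accumulation read by LANCE Ultra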).
T1 construct: SHSY-5Y (human neuroblastoma cell line) and RG-2 (rat glioma cell line) cells endogenously express human and rat PAC1 receptors, respectively; endogenous in cells; host or cells: RG-2 rat glioma cells
T1 sequence (P32215 20-523): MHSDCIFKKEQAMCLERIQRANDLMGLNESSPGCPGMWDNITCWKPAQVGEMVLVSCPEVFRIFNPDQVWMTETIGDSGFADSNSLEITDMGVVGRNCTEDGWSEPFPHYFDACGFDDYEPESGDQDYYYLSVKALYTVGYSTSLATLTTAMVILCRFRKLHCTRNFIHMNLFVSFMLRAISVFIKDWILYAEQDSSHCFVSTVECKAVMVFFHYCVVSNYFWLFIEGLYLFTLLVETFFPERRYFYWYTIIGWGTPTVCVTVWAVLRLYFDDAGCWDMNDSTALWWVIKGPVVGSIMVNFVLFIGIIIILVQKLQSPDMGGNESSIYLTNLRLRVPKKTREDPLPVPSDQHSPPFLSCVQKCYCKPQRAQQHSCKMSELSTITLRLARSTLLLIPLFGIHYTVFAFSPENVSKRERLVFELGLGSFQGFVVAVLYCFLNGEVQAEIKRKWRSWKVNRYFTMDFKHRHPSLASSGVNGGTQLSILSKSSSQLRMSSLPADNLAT
Format: cell-based
Description: In order to determine the potency of peptide antagonists at the PAC1 receptor, functional cAMP accumulation assays using LANCE Ultra cAMP assay kit to measure the agonist and antagonist activity of PAC1 peptides were used. SHSY-5Y (human neuroblastoma cell line) and RG-2 (rat glioma cell line) cells endogenously express human and rat PAC1 receptors, respectively. Agonist activity of PAC1 peptides was tested by incubating with SHSY-5Y at 2,000 cells per well or RG-2 at 5,000 cells per well for 15 minutes at room temperature. PAC1 receptor agonist PACAP38 or maxadilan was included as a positive control. The reaction was stopped by adding detection mixture, europium (Eu) chelate-labeled cAMP tracer and cAMP-specific monoclonal antibodies labeled with the ULight™ dye, to all wells followed by a 60-minute incubation at room temperature. The assay plates were then read on an EnVision instrument at an emission wavelength of 665 and 615 nm and data were analyzed using Genedata Screener or GraphPad Prism software. A similar procedure was used in the antagonist assays by using a fixed concentration of PAC1 agonist. The concentrations of agonists were chosen based on their ECK) values at PAC1 receptors in SHSY-5Y or RG-2 cells. SHSY-5Y or RG-2 cells were added into 96-well half-area white plates. Serially diluted PAC1 peptides at ten concentrations were added and incubated for 30 minutes at room temperature. PAC1 agonist at EC80 concentration was then added and further incubated for 15 minutes at room temperature. The reaction was stopped by adding detection mixture to all wells followed by a 60-minute incubation at room temperature. The assay plates were read and analyzed the same way as that of agonist assay. Cells, agonists, and PAC1 peptides were prepared in freshly made assay buffer (F-12, 0.5 mM IBMX, 0.1 or 0.4% BSA (pH 7.4)). Detection mixture was made by mixing a 1/50 dilution of the Eu-cAMP tracer stock solution in cAMP Detection Buffer and a 1/150 dilution of the ULight-anti-cAMP stock solution in cAMP Detection Buffer. Europium (Eu) chelate-labeled cAMP tracer, cAMP-specific monoclonal antibodies labeled with the ULight™ dye, BSA, and detection buffer were provided in LANCE Ultra cAMP Kit from PerkinElmer

**Q.** With CC[C@H](C)[C@H](NC(=O)[C@H](C)NC(=O)[C@H](CCCCN)NC(=O)[C@H](CCCNC(=N)N)NC(=O)[C@H](Cc1ccccc1)NC(=O)[C@H](CCC(N)=O)NC(=O)[C@@H]1CSSC[C@H](N)C(=O)N[C@@H](CC(=O)O)C(=O)N[C@@H](C)C(=O)N[C@@H]([C@@H](C)O)C(=O)N1)C(=O)N[C@@H](CC(=O)O)C(=O)N[C@@H](CC(=O)O)C(=O)N[C@H]1CSSC[C@@H](C(=O)N[C@@H](CCSC)C(=O)N[C@@H](CCCCN)C(=O)N[C@@H](CCC(N)=O)C(=O)N[C@@H](CCCCN)C(=O)N[C@@H](CCCCN)C(=O)N[C@@H](CCCCN)C(=O)N[C@@H](CCC(=O)O)C(=O)N[C@@H](Cc2c[nH]c3ccccc23)C(=O)N[C@@H](CCCCN)C(=O)N[C@@H](Cc2c[nH]cn2)C(=O)O)NC(=O)[C@H](C)NC(=O)[C@H](CCCCN)NC(=O)[C@H](Cc2ccccc2)NC(=O)[C@H](CO)NC(=O)[C@H](Cc2c[nH]cn2)NC(=O)[C@H](Cc2ccc(O)cc2)NC(=O)[C@H](C)NC(=O)[C@H](CCC(N)=O)NC(=O)[C@H](CCCNC(=N)N)NC(=O)[C@H](C)NC1=O [compound 450] (H-CDATCQFRKAIDDCARQAYHSFKACMKQKKKEWKH-OH; disulfide 1-5, 14-25) as the compound, how does the IC50 read?
**A.** 1 to 100 nM

**Q.** With CC[C@H](C)[C@H](NC(=O)[C@H](C)NC(=O)[C@H](CCCCN)NC(=O)[C@H](CCCNC(=N)N)NC(=O)[C@H](Cc1ccccc1)NC(=O)[C@H](CCC(N)=O)NC(=O)[C@@H]1CSSC[C@H](N)C(=O)N[C@@H](CC(=O)O)C(=O)N[C@@H](C)C(=O)N[C@@H]([C@@H](C)O)C(=O)N1)C(=O)N[C@@H](CC(=O)O)C(=O)N[C@@H](CC(=O)O)C(=O)N[C@H]1CSSC[C@@H](C(=O)N[C@@H](CC(C)C)C(=O)N[C@@H](CCCCN)C(=O)N[C@@H](CCC(N)=O)C(=O)N[C@@H](CCCCN)C(=O)N[C@@H](CCCCN)C(=O)N[C@@H](CCCCN)C(=O)N[C@@H](CCC(=O)O)C(=O)N[C@@H](Cc2c[nH]c3ccccc23)C(=O)N[C@@H](CCCCN)C(=O)N[C@@H](C)C(=O)NCC(N)=O)NC(=O)[C@H](CO)NC(=O)[C@H](CCCCN)NC(=O)[C@H](Cc2ccccc2)NC(=O)[C@H](C(C)C)NC(=O)[C@H](CO)NC(=O)[C@H](CO)NC(=O)[C@H](Cc2c[nH]cn2)NC(=O)[C@H](Cc2ccc(O)cc2)NC(=O)[C@H](C)NC(=O)[C@H](CCC(N)=O)NC(=O)[C@H](CCCNC(=N)N)NC(=O)[C@H](C)NC1=O [compound 436] (H-CDATCQFRKAIDDCARQAYHSSVFKSCLKQKKKEWKAG-NH2; disulfide 1-5, 14-27) as the compound, how does the IC50 read?
**A.** 0.01 to 1 nM

**Q.** CC[C@H](C)[C@H](NC(=O)[C@H](C)NC(=O)[C@H](CCCCN)NC(=O)[C@H](CCCNC(=N)N)NC(=O)[C@H](Cc1ccccc1)NC(=O)[C@H](CCC(N)=O)NC(=O)[C@@H]1CSSC[C@H](N)C(=O)N[C@@H](CC(=O)O)C(=O)N[C@@H](C)C(=O)N[C@@H]([C@@H](C)O)C(=O)N1)C(=O)N[C@@H](CC(=O)O)C(=O)N[C@@H](CC(=O)O)C(=O)N[C@H]1CSSC[C@@H](C(=O)N[C@@H](CCSC)C(=O)N[C@@H](CCCCN)C(=O)N[C@@H](CCC(N)=O)C(=O)N[C@@H](CCCCN)C(=O)N[C@@H](CCCCN)C(=O)N[C@@H](CCCCN)C(=O)N[C@@H](CCC(=O)O)C(=O)N[C@@H](Cc2c[nH]c3ccccc23)C(=O)N[C@@H](CCCCN)C(=O)N[C@@H](C)C(=O)NCC(N)=O)NC(=O)[C@H](C)NC(=O)[C@H](CCCCN)NC(=O)[C@H](Cc2ccccc2)NC(=O)[C@H](C(C)C)NC(=O)[C@H](CO)NC(=O)[C@H](CO)NC(=O)[C@H](Cc2c[nH]cn2)NC(=O)[C@H](Cc2ccc(O)cc2)NC(=O)[C@H](CO)NC(=O)[C@H](CCC(N)=O)NC(=O)[C@H](CCCNC(=N)N)NC(=O)[C@H](C)NC1=O [compound 432] (H-CDATCQFRKAIDDCARQSYHSSVFKACMKQKKKEWKAG-NH2; disulfide 1-5, 14-27) was tested. Which IC50 did it give?
**A.** < 0.01 nM

**Q.** With “CDATCQFRKAIDDCQKQAHHSNVPGSVFKACMKQKKKEFKAGGGGS (disulfide 1-5, 14-31) [compound 177]” as the compound, how does the IC50 read?
**A.** 0.01 to 1 nM

**Q.** For “CDATCQFRKAIDDCQKQAHHSNVPGSVFKACMKQKKKEFKAGA (disulfide 1-5, 14-31) [compound 175]”, which IC50 is on record?
**A.** 0.01 to 1 nM

**Q.** How did the IC50 turn out when “CDATCQFRKAIDDCQKQAHHSNVPGSVFKACMKQKKKEFKAGK (disulfide 1-5, 14-31) [compound 182]” was run?
**A.** 0.01 to 1 nM

**Q.** With CC[C@H](C)[C@@H]1NC(=O)[C@H](C)NC(=O)[C@H](CCCCN)NC(=O)[C@H](CCCNC(=N)N)NC(=O)[C@H](Cc2ccccc2)NC(=O)[C@H](CCC(N)=O)NC(=O)[C@H](CO)NC(=O)[C@H]([C@@H](C)O)NC(=O)[C@H](C)NC(=O)[C@H](CC(=O)O)NC(=O)[C@@H](N)CSSC[C@@H](C(=O)N[C@@H](Cc2c[nH]cn2)C(=O)O)NC(=O)[C@H](C)NC(=O)[C@H](CCCCN)NC(=O)[C@H](Cc2c[nH]c3ccccc23)NC(=O)[C@H](CCC(=O)O)NC(=O)[C@H](CCCCN)NC(=O)[C@H](CCCCN)NC(=O)[C@H](CCCCN)NC(=O)[C@H](CCC(N)=O)NC(=O)[C@H](CCCCN)NC(=O)[C@H](CCSC)NC(=O)[C@H](CO)NC(=O)[C@H](C)NC(=O)[C@H](CCCCN)NC(=O)[C@H](Cc2ccccc2)NC(=O)[C@H](C)NC(=O)[C@H](CO)NC(=O)[C@H](CC(=O)O)NC(=O)[C@H](CC(=O)O)NC1=O [compound 442] (H-CDATSQFRKAIDDSAFKASMKQKKKEWKACH-OH; disulfide 1-30) as the compound, how does the IC50 read?
**A.** > 100 nM

**Q.** With “MCDATCQFRKAIDDCQKQAHHSNVPGSVFKACMKQKKKEFKAGHHHHH (disulfide 2-6, 15-32) [compound 199]” as the compound, how does the IC50 read?
**A.** 0.01 to 1 nM

**Q.** Which IC50 does the source give for CC[C@H](C)[C@@H]1NC(=O)[C@@H](NC(=O)[C@H](CCCCN)NC(=O)[C@H](CCCNC(=N)N)NC(=O)[C@H](Cc2ccccc2)NC(=O)[C@H](CCC(N)=O)NC(=O)[C@H](CO)NC(=O)[C@@H](NC(=O)[C@H](C)NC(=O)[C@H](CC(=O)O)NC(=O)[C@@H](N)CO)[C@@H](C)O)CSSC[C@@H](C(=O)N[C@@H](CCCCN)C(=O)N[C@@H](CCC(N)=O)C(=O)N[C@@H](CCCCN)C(=O)N[C@@H](CCCCN)C(=O)N[C@@H](CCCCN)C(=O)N[C@@H](CCC(=O)O)C(=O)N[C@@H](Cc2c[nH]c3ccccc23)C(=O)N[C@@H](CCCCN)C(=O)N[C@@H](C)C(=O)NCC(=O)N[C@@H](Cc2c[nH]cn2)C(=O)O)NC(=O)[C@H](CO)NC(=O)[C@H](C)NC(=O)[C@H](CCCCN)NC(=O)[C@H](Cc2ccccc2)NC(=O)[C@H](C)NC(=O)CNC(=O)[C@H](CO)NC(=O)[C@H](CC(=O)O)NC(=O)[C@H](CC(=O)O)NC1=O [compound 441] (H-SDATSQFRKCIDDSGAFKASCKQKKKEWKAGH-OH; disulfide 10-21) here?
**A.** 1 to 100 nM

**Q.** How did the IC50 turn out when CC[C@H](C)[C@H](NC(=O)[C@H](C)NC(=O)[C@H](CCCCN)NC(=O)[C@H](CCCNC(=N)N)NC(=O)[C@H](Cc1ccccc1)NC(=O)[C@H](CCC(N)=O)NC(=O)[C@@H]1CSSC[C@H](N)C(=O)N[C@@H](CC(=O)O)C(=O)N[C@@H](C)C(=O)N[C@@H]([C@@H](C)O)C(=O)N1)C(=O)N[C@@H](CC(=O)O)C(=O)N[C@@H](CC(=O)O)C(=O)N[C@H]1CSSC[C@@H](C(=O)N[C@@H](CC(C)C)C(=O)N[C@@H](CCCCN)C(=O)N[C@@H](CCC(N)=O)C(=O)N[C@@H](CCCCN)C(=O)N[C@@H](CCCCN)C(=O)N[C@@H](CCCCN)C(=O)N[C@@H](CCC(=O)O)C(=O)N[C@@H](Cc2c[nH]c3ccccc23)C(=O)N[C@@H](CCCCN)C(=O)N[C@@H](C)C(=O)NCC(N)=O)NC(=O)[C@H](C)NC(=O)[C@H](CCCCN)NC(=O)[C@H](Cc2ccccc2)NC(=O)[C@H](C(C)C)NC(=O)[C@H](CO)NC(=O)[C@H](CO)NC(=O)[C@H](Cc2c[nH]cn2)NC(=O)[C@H](Cc2ccc(O)cc2)NC(=O)[C@H](C)NC(=O)[C@H](CCC(N)=O)NC(=O)[C@H](CCCNC(=N)N)NC(=O)[C@H](C)NC1=O [compound 435] (H-CDATCQFRKAIDDCARQAYHSSVFKACLKQKKKEWKAG-NH2; disulfide 1-5, 14-27) was run?
**A.** 0.01 to 1 nM

**Q.** How did the IC50 turn out when CC[C@H](C)[C@H](NC(=O)[C@H](C)NC(=O)[C@H](CCCCN)NC(=O)[C@H](CCCNC(=N)N)NC(=O)[C@H](Cc1ccccc1)NC(=O)[C@H](CCC(N)=O)NC(=O)[C@@H]1CSSC[C@H](N)C(=O)N[C@@H](CC(=O)O)C(=O)N[C@@H](C)C(=O)N[C@@H]([C@@H](C)O)C(=O)N1)C(=O)N[C@@H](CC(=O)O)C(=O)N[C@@H](CC(=O)O)C(=O)N[C@H]1CSSC[C@@H](C(=O)N[C@@H](CCSC)C(=O)N[C@@H](CCCCN)C(=O)N[C@@H](CCC(N)=O)C(=O)N[C@@H](CCCCN)C(=O)N[C@@H](CCCCN)C(=O)N[C@@H](CCCCN)C(=O)N[C@@H](CCC(=O)O)C(=O)N[C@@H](Cc2c[nH]c3ccccc23)C(=O)N[C@@H](CCCCN)C(=O)N[C@@H](C)C(=O)NCC(N)=O)NC(=O)[C@H](C)NC(=O)[C@H](CCCCN)NC(=O)[C@H](Cc2ccccc2)NC(=O)[C@H](C(C)C)NC(=O)[C@H](CO)NC(=O)[C@H](CC(N)=O)NC(=O)[C@H](CO)NC(=O)[C@H](Cc2c[nH]cn2)NC(=O)[C@H](Cc2ccc(O)cc2)NC(=O)[C@H](C)NC(=O)[C@H](CCC(N)=O)NC(=O)[C@H](CCCNC(=N)N)NC(=O)[C@H](C)NC1=O [compound 429] (H-CDATCQFRKAIDDCARQAYHSNSVFKACMKQKKKEWKAG-NH2; disulfide 1-5, 14-28) was run?
**A.** < 0.01 nM
